Consider 6 compounds from article PMC9105384, “Ethyl Gallate Dual-Targeting PTPN6 and PPARγ Shows Anti-Diabetic and Anti-Obese Effects” (International Journal of Molecular Sciences, 2022).

The target of experiment [1] is T1, PTPN6 (Homo sapiens, UniProt P29350). Briefly: DiFMUP fluorescence phosphatase assay; Dixon and Lineweaver-Burk plots (IC50 […]). In kind it is biochemical.
The target in experiment [2] is T1, PTPN6. Briefly: DiFMUP phosphatase screen, single dose […] (% inhibition, hit threshold […]). In kind it is biochemical. Particulars: read-out: % inhibition at 20 μM.
In the next experiment the target is T2, PTPN1 (Homo sapiens, UniProt P18031).
T2 sequence (P18031 1-435): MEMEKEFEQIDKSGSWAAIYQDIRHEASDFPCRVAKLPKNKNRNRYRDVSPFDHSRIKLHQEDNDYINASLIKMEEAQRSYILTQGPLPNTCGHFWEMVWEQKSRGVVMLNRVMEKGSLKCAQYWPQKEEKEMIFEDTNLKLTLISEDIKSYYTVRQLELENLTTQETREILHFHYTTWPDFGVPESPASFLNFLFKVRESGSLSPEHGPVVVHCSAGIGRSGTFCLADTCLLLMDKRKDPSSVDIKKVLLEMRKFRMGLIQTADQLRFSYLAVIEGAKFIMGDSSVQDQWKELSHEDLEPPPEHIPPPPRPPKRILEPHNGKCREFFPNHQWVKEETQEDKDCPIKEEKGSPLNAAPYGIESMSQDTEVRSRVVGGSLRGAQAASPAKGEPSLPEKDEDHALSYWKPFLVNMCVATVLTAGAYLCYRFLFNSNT
Also on record: DiFMUP hydrolysis by purified PTPs, fluorescence Ex355/Em460, initial rates over 10 min; Michaelis-Menten and Lineweaver-Burk Km. Conditions: optimized pH for each PTP; substrate. As for the experimental part: (§1) The enzymatic activity of each PTP was evaluated using 6,8-difluoro-4-methylumbelliferyl phosphate (DiFMUP) as the surrogate substrate. To reach within the range of the initial rate (v0) during the measurement for 10 min, the pH and concentration of each PTP were optimized and are listed in Table S3. To determine the Km values, each PTP with optimized concentration was added to the reaction buffer (20 mM Bis-Tris at pH 6.0 or Tris at pH 7.0 and 8.0, 150 mM NaCl, 2.5 mM dithiothreitol (DTT), 0.01% Triton X-100) containing various concentrations of DiFMUP to obtain a final volume of 100 μL in a 96-well plate. Fluorescence intensities were measured once every minute for a complete 10 min duration using a Victor™ X4 Multilabel Plate Reader (Perkin Elmer, Waltham, MA, USA) at excitation/emission = 355 nm/460 nm. The initial rates of the reaction were determined using a previously described procedure for calculating the amount of product formation. To screen a library of 1033 natural products (Chengdu Biopurify Phytochemicals Ltd., Chengdu, China) against 20 PTPs, each PTP with an optimized concentration was added to the reaction buffer with an optimized pH containing DiFMUP (2 × Km for each PTP) after adding each compound (20 μM). […] The Hill coefficient (nH), the degree of cooperativity, was calculated according to a previously published method. […]

A further experiment deals with T3, PTPRJ (Homo sapiens, UniProt Q12913).
T3 sequence (Q12913 1-1337): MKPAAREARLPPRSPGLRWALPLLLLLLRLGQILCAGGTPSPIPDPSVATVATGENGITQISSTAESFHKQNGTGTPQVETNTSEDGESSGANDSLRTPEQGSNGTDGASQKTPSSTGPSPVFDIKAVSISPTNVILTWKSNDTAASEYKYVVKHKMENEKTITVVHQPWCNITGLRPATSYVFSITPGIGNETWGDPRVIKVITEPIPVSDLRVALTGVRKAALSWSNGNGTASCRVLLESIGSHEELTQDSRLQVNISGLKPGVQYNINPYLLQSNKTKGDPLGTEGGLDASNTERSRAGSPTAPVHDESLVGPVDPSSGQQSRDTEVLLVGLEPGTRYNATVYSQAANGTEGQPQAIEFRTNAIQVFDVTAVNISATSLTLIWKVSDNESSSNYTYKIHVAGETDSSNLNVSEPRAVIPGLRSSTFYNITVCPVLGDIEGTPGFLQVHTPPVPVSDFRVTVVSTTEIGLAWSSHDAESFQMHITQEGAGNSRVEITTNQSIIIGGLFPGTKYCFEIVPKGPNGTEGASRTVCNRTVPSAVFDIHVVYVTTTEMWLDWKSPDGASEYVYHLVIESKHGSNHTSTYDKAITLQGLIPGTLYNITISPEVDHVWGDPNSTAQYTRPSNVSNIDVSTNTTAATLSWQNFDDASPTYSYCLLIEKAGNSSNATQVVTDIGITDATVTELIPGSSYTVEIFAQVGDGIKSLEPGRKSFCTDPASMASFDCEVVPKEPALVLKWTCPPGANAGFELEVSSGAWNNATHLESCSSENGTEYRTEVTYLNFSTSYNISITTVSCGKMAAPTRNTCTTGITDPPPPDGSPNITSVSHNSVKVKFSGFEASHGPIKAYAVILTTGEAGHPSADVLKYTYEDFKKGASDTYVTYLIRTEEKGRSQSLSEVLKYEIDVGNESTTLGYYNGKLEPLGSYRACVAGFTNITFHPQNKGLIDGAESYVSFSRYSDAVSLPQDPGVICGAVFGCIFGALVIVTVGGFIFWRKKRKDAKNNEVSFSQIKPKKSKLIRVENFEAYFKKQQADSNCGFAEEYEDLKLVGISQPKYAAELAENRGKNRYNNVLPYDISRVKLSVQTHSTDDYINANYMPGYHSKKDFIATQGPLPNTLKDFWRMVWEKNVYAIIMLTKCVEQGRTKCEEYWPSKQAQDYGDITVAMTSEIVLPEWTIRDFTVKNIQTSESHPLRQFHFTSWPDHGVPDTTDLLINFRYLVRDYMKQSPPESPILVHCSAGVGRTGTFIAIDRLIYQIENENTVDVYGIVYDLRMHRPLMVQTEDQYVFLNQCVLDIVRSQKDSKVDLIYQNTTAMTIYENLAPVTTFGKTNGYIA
Also on record: DiFMUP hydrolysis by purified PTPs, fluorescence Ex355/Em460, initial rates over 10 min; Michaelis-Menten and Lineweaver-Burk Km. Particulars: optimized pH for each PTP; substrate. As for the experimental part:
as §1

T1 sequence (P29350 whole entry): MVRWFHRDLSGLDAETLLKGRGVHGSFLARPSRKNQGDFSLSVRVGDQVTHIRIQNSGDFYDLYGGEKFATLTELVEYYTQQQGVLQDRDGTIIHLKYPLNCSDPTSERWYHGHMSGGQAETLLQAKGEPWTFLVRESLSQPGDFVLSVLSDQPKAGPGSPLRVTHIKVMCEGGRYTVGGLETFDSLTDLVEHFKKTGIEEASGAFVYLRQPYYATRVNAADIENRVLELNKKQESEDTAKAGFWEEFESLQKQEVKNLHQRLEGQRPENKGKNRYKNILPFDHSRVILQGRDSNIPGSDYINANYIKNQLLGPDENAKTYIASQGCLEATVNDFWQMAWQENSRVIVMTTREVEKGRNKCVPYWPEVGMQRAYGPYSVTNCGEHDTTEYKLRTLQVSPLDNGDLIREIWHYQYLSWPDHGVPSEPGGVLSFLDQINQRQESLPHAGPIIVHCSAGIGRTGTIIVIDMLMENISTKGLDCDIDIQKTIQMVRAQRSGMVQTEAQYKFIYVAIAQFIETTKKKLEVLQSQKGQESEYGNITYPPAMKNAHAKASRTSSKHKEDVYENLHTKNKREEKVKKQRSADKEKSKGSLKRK

The Ki is a measure of affinity in units of concentration, obtained from inhibition or displacement. High values mean a looser hold on the target, low ones a stronger hold on the target. The compound `CCOC(=O)c1cc(O)c(O)c(O)c1` [compound 271, ethyl gallate] had an inhibitory constant (Ki) at PTPN6 [1] of 3.4 µM.
What is called inhibition is the change of the read-out against control, counted positive when it falls. For `CCCCCCCCCCCCCCCCC(C(=O)O)C(O)(CC(=O)O)C(=O)O` (stereo not shown) [compound 891, agaric acid], the inhibition at 20 µM on PTPN6 [2] was > 60%.
Same read-out and setting: the figure for `O=C1C=CC(=O)c2c(O)cccc21` [compound 362, juglone] is > 60%; for `COc1ccc(-c2oc3c(CC=C(C)C)c(O[C@@H]4O[C@H](CO)[C@@H](O)[C@H](O)[C@H]4O)cc(O)c3c(=O)c2O)cc1` [compound 335, icariside I] it is > 60%; for `C[C@@H]1O[C@@H](Oc2c(-c3cc(O)c(O)c(O)c3)oc3cc(O)cc(O)c3c2=O)[C@H](O)[C@H](O)[C@H]1O` [compound 429, myricetrin] it is > 60%.
Broadly, the Km is the concentration of substrate that gives half-maximal velocity. With `Cc1cc(=O)oc2c(F)c(OP(=O)(O)O)c(F)cc12` [6,8-difluoro-4-methylumbelliferyl phosphate], the Michaelis-Menten constant (Km) at PTPN1 stood at 21.6 µM; at PTPRJ it was 66.4 µM.
